Data on 31 compounds can be found in ChEMBL document CHEMBL1150736, “Potential inhibitors of platelet aggregation from plant sources, III” (1987).

Active and inactive are the calls of the source. No cut-off for these calls is given here.

Holding throughout (type): functional
In assay [1] the test system is Platelet. In words: Antiplatelet activity against rat platelet rich plasma assessed as inhibition of arachidonic acid-induced platelet aggregation at 0.25 mg/ml pretreated 2 mins before arachidonic acid challenge.
Assay [2] has as its system Platelet. In words: Antiplatelet activity against rat platelet rich plasma assessed as inhibition of collagen-induced platelet aggregation at 0.25 mg/ml pretreated 2 mins before collagen challenge.
In assay [3] the test system is Platelet. In words: Antiplatelet activity against rat platelet rich plasma assessed as inhibition of ADP-induced platelet aggregation at 1 mg/ml pretreated 2 mins before ADP challenge.
Assay [4] relates to Platelet. In words: Antiplatelet activity against rat platelet rich plasma assessed as inhibition of arachidonic acid-induced platelet aggregation at 0.5 mg/ml pretreated 2 mins before arachidonic acid challenge.
The test system of assay [5] is Platelet. In words: Antiplatelet activity against rat platelet rich plasma assessed as inhibition of arachidonic acid-induced platelet aggregation at 0.1 mg/ml pretreated 2 mins before arachidonic acid challenge.
In assay [6] the test system is Platelet. The assay is described as follows: Antiplatelet activity against rat platelet rich plasma assessed as inhibition of collagen-induced platelet aggregation at 0.1 mg/ml pretreated 2 mins before collagen challenge.
The test system of assay [7] is Platelet. The assay is described as follows: Antiplatelet activity against rat platelet rich plasma assessed as inhibition of ADP-induced platelet aggregation at 0.5 mg/ml pretreated 2 mins before ADP challenge.
Assay [8] can be described thus: Antiplatelet activity against rat platelet rich plasma assessed as inhibition of ADP-induced platelet aggregation pretreated 2 mins before ADP challenge.
Assay [9] is described as follows: Antiplatelet activity against rat platelet rich plasma assessed as inhibition of arachidonic acid-induced platelet aggregation pretreated 2 mins before arachidonic acid challenge.
Assay [10] can be described thus: Antiplatelet activity against rat platelet rich plasma assessed as inhibition of collagen-induced platelet aggregation pretreated 2 mins before collagen challenge.
The subject of assay [11] is Platelet. The assay is described as follows: Antiplatelet activity against rat platelet rich plasma assessed as inhibition of collagen-induced platelet aggregation at 0.05 mg/ml pretreated 2 mins before collagen challenge.

As to `COc1ccc(O)c(C(=O)O)c1`, the outcome with Platelet [1] was inactive. Moreover, the outcome with Platelet [2] and with Platelet [3] was Active.
Turning to `COc1ccc(C(=O)O)c(OC)c1`, the result in the assay on Platelet [4], in the assay on Platelet [2] and in the assay with Platelet [3] was Active.
As for `O=C(O)c1cc(O)cc(O)c1`, the outcome in the assay on Platelet [4], with Platelet [2] and in the assay with Platelet [3] was Active.
In the case of `COC(=O)c1ccc(O)cc1O`, the result in the assay with Platelet [4], in the assay with Platelet [1] and with Platelet [3] was Active.
In the case of `COC(=O)c1cc(O)cc(O)c1`, the result in the assay with Platelet [4], in the assay on Platelet [1], in the assay with Platelet [2], in the assay with Platelet [5] and in the assay on Platelet [3] was Active.
`COc1cccc(C(=O)O)c1OC`: the result with Platelet [4] and in the assay on Platelet [1] was inactive. The result in the assay with Platelet [2] and in the assay with Platelet [3] was Active.
Regarding `COC(=O)c1ccc(O)c(OC)c1`, the outcome with Platelet [4], in the assay with Platelet [1], in the assay on Platelet [2], with Platelet [6] and in the assay on Platelet [3] was Active.
As for `COc1cccc(OC)c1C(=O)O`, the outcome in the assay on Platelet [1] was inactive. For the same compound, the outcome in the assay on Platelet [2] was Active.
For `CCOC(=O)c1ccc(O)cc1O`, the outcome in the assay with Platelet [4], in the assay on Platelet [1] and in the assay on Platelet [3] was Active.
As for `COC(=O)c1ccc(OC)c(OC)c1`, the outcome with Platelet [4], in the assay with Platelet [1], in the assay with Platelet [2] and with Platelet [6] was Active.
As for `COC(=O)c1cc(OC)cc(OC)c1`, the result with Platelet [4] and with Platelet [2] was Active.
Consider `COc1ccc(C(=O)O)c(O)c1`, for which the result in the assay on Platelet [4] and with Platelet [2] was Active.
On to `COC(=O)c1ccc(OC)cc1O`, for which the outcome with Platelet [7] and in the assay with Platelet [1] was inactive. Moreover, the outcome in the assay with Platelet [2] was Active.
For `COC(=O)c1cccc(O)c1O`, the result in the assay on Platelet [4], with Platelet [1] and in the assay with Platelet [3] was Active.
Turning to `O=C(O)c1c(O)cccc1O`, the result in the assay with Platelet [4] and in the assay with Platelet [2] was Active.
In the case of `COc1ccc(C(=O)O)cc1O`, the result in the assay on Platelet [4] and in the assay on Platelet [3] was Active. The outcome in the assay on Platelet [1] was inactive.
For `CCOc1ccc(C(=O)O)cc1OCC`, the result in the assay on Platelet [4] and in the assay on Platelet [3] was Active. For the same compound, the outcome in the assay with Platelet [1], in the assay on Platelet [2] and with Platelet [6] was inactive.
As for `CC(=O)Oc1ccccc1C(=O)O` [ASPIRIN], the Activity in assay [8] worked out at 5.6 mM; in assay [9] it was 2.8 ×10⁻⁴ M; in assay [10] it was 1.4 mM. Besides, the outcome with Platelet [4], in the assay with Platelet [1], in the assay on Platelet [2], with Platelet [5] and in the assay on Platelet [3] was Active. Besides, the result in the assay with Platelet [11] was inactive.
As for `COc1cc(OC)cc(C(=O)O)c1`, the outcome in the assay on Platelet [7], in the assay with Platelet [2] and with Platelet [6] was inactive.
On to `CCOC(=O)c1cccc(O)c1O`, for which the result in the assay with Platelet [4], in the assay on Platelet [1] and in the assay on Platelet [3] was Active.
As for `O=C(O)c1ccc(O)cc1O`, the outcome in the assay with Platelet [4], with Platelet [1], in the assay on Platelet [2], with Platelet [5], in the assay with Platelet [6] and in the assay with Platelet [3] was Active.
On to `COC(=O)c1ccc(O)c(O)c1`, for which the outcome with Platelet [4], in the assay on Platelet [1] and in the assay on Platelet [3] was Active.
Turning to `CCOC(=O)c1ccc(O)c(O)c1`, the Activity in [8] amounted to 2.7 mM; in assay [9], 5.5 ×10⁻⁴ M; in [10] it was 1.4 mM. In addition, the result in the assay on Platelet [7], in the assay on Platelet [4], in the assay on Platelet [1], in the assay on Platelet [2], in the assay on Platelet [5] and in the assay on Platelet [3] was Active.
`O=C(O)c1cc(O)ccc1O`: the outcome with Platelet [4], in the assay on Platelet [2] and in the assay on Platelet [3] was Active.
Regarding `COc1ccc(C(=O)O)cc1OC`, the result in the assay on Platelet [7] and in the assay with Platelet [1] was inactive.
For the compound `COc1cc(C(=O)O)ccc1O`, the outcome in the assay on Platelet [4], with Platelet [2] and in the assay with Platelet [3] was Active. Moreover, the result in the assay on Platelet [1] was inactive.
In the case of `O=C(O)c1ccc(O)c(O)c1` [PROTOCATECHUIC ACID], the figures for the Activity in assay [8], in assay [9] and in [10] were 6.5 mM, 3.2 mM and 1.6 mM, respectively. For the same compound, the result in the assay with Platelet [4], in the assay on Platelet [2] and in the assay with Platelet [3] was Active.
Consider `COc1cccc(C(=O)O)c1O`, for which the result in the assay with Platelet [4] and with Platelet [3] was Active.
As for `O=C(O)c1cccc(O)c1O`, the outcome in the assay with Platelet [4], with Platelet [1], in the assay with Platelet [2] and in the assay with Platelet [3] was Active.
In the case of `COc1cc(CC(=O)O)ccc1O`, the result in the assay with Platelet [1] and in the assay with Platelet [3] was Active.
Take `CCOC(=O)c1cc(O)cc(O)c1`: the outcome in the assay on Platelet [4] and in the assay on Platelet [3] was Active.
